The values that follow come from patent US8202902B2, “Bivalent SMAC mimetics and the uses thereof” (The Regents of the University of Michigan, priority 2006, dated 2012).

Residues, ends and D or L forms follow the SMILES beside them. *: point of attachment. Cbz = O=C(OCc1ccccc1)*; CH2F = FC*

The subject of assay [1] is cIAP-1 in cancer cell lines. As to the kind of experiment: Induction of cIAP-1 degradation in cancer cells. It counts as cell-based. As to conditions: sensitive and resistant cancer cell lines.
The target of assay [2] is T1, Recombinant XIAP containing linker-BIR2-BIR3 (residues 120-356) (Homo sapiens, UniProt P98170).
T1 construct: Recombinant XIAP containing linker-BIR2-BIR3 (residues 120-356)
As to the kind of experiment: Cell-free functional assay: antagonism of XIAP inhibition of caspase-3/-7. It counts as biochemical. Particulars: up to 100 μM.

Assay [3] concerns the target T2, human XIAP protein (residues 120-356) (Homo sapiens, UniProt P98170).
T2 construct: human XIAP protein (residues 120-356) (10 nM)
Kind of assay: Fluorescence-polarization-based binding assay to XIAP protein (Smac2-F tracer). As to conditions: read-out: Binding to XIAP IC50 values. How it is done: The polarization values were measured after 2 hours incubation, using the Ultra plate reader. […] Curve fitting is performed using GraphPad Prism® software.

In assay [4] the test system is XIAP, cIAP-1, and cIAP-2 proteins. Kind of assay: Fluorescence-polarization based binding of control compounds to IAP proteins. How it is done: Therefore binding affinities of Smac mimetics to cIAP-2 BIR3-only protein were evaluated.
For assay [5], the target named is T3, XIAP BIR3 protein of human XIAP (residues 241-356) (Homo sapiens, UniProt P98170).
T3 construct: human XIAP (residues 241-356) fused to His-tag; His-tag
Kind of assay: Fluorescence polarization (FP) based binding assay to XIAP BIR3. Particulars: read-out: Binding Affinities to XIAP BIR3 (IC50 [uM]). An excerpt:
In order to test the binding ability of the bivalent Smac mimetics to IAP proteins, a sensitive and quantitative in vitro binding assay using the fluorescence polarization (FP) based method was developed and used to determine the binding affinity of Smac mimetics to XIAP protein (Nikolovska-Coleska et al., Anal Biochem. 332:261-73 (2004)). […] The recombinant XIAP BIR3 protein of human XIAP ([…]) fused to His-tag was stable and soluble, and was used for the FP based binding assay. The dose-dependent binding experiments were carried out with serial dilutions of the tested compounds in DMSO. […] Inc., Research Triangle Park, N.C.). […] Curve fitting was performed using […] PRISM software (GraphPad Software, Inc., San Diego, Calif.).

In assay [6] the test system is MDA-MB-231 and SK-OV-3 cancer cell lines. As to the kind of experiment: Role of caspase-8, -3 and -9 (siRNA, caspase inhibitors) in activity of Smac mimetics. It counts as cell-based. From the text: To examine the role of caspase-8, -3 and -9 in apoptosis induction by Smac mimetics, siRNA was employed against these caspases in MDA-MB-231 and SK-OV-3 cancer cell lines.

The subject of assay [7] is MDA-MB-231 (2LMP) breast cancer cells. Kind of assay: Cell growth inhibition by TRAIL alone or with Smac mimetic, MDA-MB-231 (2LMP). It counts as cell-based, human. On the procedure:
(§1) The rate of cell growth inhibition after treatment with different concentrations of the compound was determined using a WST-8 kit (2-(2-methoxy-4-nitrophenyl)-3-(4-nitrophenyl)-5-(2, 4 disulfophenyl)-2H-tetrazolium monosodium salt; Dojindo Molecular Technologies, Inc., Gaithersburg, Md.). WST-8 was added at a final concentration of 10% to each well, and then the plates were incubated at 37° C. for 2-3 hrs. The absorbance of the samples was measured at 450 nm using a ULTRA Tecan Reader (Molecular Device).
(§2) To test the ability of bivalent Smac mimetics to sensitize cancer cells to the growth inhibiting effects of other agents, cell growth inhibition assays were carried out with various agents alone or in combination with increasing doses of bivalent Smac mimetics.

Assay [8] deals with PC-3 human prostate cancer cells. Kind of assay: Cell growth inhibition by TRAIL alone or with Smac mimetic, PC-3. It counts as cell-based. On the procedure: as §1, §2
Assay [9] deals with MDA-MB-453 breast cancer cells. Kind of assay: Cell growth inhibition by TRAIL alone or with Smac mimetic, MDA-MB-453. It counts as cell-based. How it is done:
as §1, §2

The target in the next assay is XIAP (Homo sapiens, UniProt P98170). Particulars: cited from earlier work.
XIAP, sequence (P98170 whole entry): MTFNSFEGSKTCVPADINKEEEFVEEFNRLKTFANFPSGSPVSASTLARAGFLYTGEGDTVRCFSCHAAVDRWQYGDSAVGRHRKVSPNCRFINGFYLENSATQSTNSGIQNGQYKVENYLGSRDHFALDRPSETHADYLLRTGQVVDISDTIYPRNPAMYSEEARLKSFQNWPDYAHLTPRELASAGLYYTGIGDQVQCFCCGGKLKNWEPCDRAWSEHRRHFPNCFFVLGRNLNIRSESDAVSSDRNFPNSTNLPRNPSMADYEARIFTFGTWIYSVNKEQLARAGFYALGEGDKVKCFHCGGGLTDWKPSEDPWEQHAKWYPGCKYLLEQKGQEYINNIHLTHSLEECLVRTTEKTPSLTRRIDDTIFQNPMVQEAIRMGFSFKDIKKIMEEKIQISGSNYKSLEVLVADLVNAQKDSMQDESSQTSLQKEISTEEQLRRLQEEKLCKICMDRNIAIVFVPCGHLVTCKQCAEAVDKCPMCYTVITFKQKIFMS

T3 sequence (P98170 241-356): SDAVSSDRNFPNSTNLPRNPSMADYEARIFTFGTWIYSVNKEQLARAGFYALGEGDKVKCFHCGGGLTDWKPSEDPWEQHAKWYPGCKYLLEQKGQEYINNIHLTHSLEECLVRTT
T2 sequence (P98170 120-356): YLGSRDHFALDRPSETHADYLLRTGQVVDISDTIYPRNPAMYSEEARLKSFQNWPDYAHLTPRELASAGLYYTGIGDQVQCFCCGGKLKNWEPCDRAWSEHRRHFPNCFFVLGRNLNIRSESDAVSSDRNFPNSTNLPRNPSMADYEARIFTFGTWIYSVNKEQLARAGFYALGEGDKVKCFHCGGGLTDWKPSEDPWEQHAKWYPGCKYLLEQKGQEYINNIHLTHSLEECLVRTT
T1 sequence (P98170 120-356): as above

As for `CC(C)C[C@@H](C=O)NC(=O)[C@H](CC(C)C)NC(=O)[C@H](CC(C)C)NC(=O)OCc1ccccc1` [MG-132, reference compound] (Cbz-Leu-Leu-Leu-aldehyde), in assay [1], the “effect of proteasome inhibitor on cIAP-1 degradation by SM-122 and SM-164” value is recorded as “effectively blocked cIAP-1 degradation”.

Broadly, the IC50 is the concentration that inhibits the measured activity by half. In the case of `CC(=O)NC(Cc1c[nH]c2ccccc12)C(=O)NC1CCCCC2CCC(C(=O)NC(c3ccccc3)c3cn(CCCCc4ccc(CCCCn5cc(C(NC(=O)C6CCC7CCCCC(NC(=O)C(Cc8c[nH]c9ccccc89)NC(C)=O)C(=O)N76)c6ccccc6)nn5)cc4)nn3)N2C1=O` (stereo not shown) [SH-173], the “effect in the functional assay” value in assay [2] is “minimal effect”. For the same molecule, the IC50 in assay [3] was greater than 10000 nM. The “less potent than SM-164 to these IAP proteins” value in assay [4] is 1000 times.

Regarding `CN[C@@H](C)C(=O)N[C@H]1CN(C(=O)CCc2ccc(F)cc2)CC[C@H]2CC[C@@H](C(=O)NC(c3ccccc3)c3ccccc3)N2C1=O` [SM-407], the 50% inhibitory concentration (IC50) in assay [5] was less than 0.1 µM.

`CN[C@@H](C)C(=O)N[C@H]1CN(C(=O)CCc2ccccc2)CC[C@H]2CC[C@@H](C(=O)NC(c3ccccc3)c3ccccc3)N2C1=O` [SM-408]: the IC50 in [5] was less than 0.1 µM.

Turning to `CCCC(=O)N1CC[C@H]2CC[C@@H](C(=O)NC(c3ccccc3)c3ccccc3)N2C(=O)[C@@H](NC(=O)[C@H](C)NC)C1` [SM-409], the IC50 in [5] is less than 0.1 µM.

Take `COC(=O)CC[C@H](NC(=O)[C@H](CC(=O)OC)NC(=O)OCc1ccccc1)C(=O)N[C@H](C(=O)N[C@@H](CC(=O)OC)C(=O)CF)C(C)C` [Z-DEVD-FMK, reference compound]: in [6], the “effect of caspase inhibitor on the activity of both Smac mimetics (SM-164, SM-122)” value is “markedly inhibited”.

As to `CC[C@H](C)[C@H](NC(=O)OCc1ccccc1)C(=O)N[C@@H](CCC(=O)OC)C(=O)N[C@H](C(=O)N[C@@H](CC(=O)OC)C(=O)CF)[C@@H](C)O` [Z-IETD-FMK, reference compound] (Cbz-IE(OMe)TD(OMe)-CH2F), in assay [6], the “effect of caspase inhibitor on the activity of both Smac mimetics (SM-164, SM-122)” value is on record as “markedly inhibited”.

For “TRAIL: tumor necrosis factor-related apoptosis-inducing ligand”, the “IC50 of TRAIL alone” value in [7] is 0.0022 µg/mL; in [8], greater than 0.3 µg/mL; in assay [9], greater than 1 µg/mL.

B1: mature Smac protein: mature Smac protein, endogenous inhibitor of XIAP (protein, UniProt Q9NR28 22-239, looked up)
Diablo IAP-binding …: LCVPVVANFKKRCFSELIRPWHKTVTIGFGVTLCAVPIAQKSEPHSLSSEALMRRAVSLVTDSTSTFLSQTTYALIEAITEYTKAVYTLTSLYRQYTSLLGKMNSEEEDEVWQVIIGARAEMTSKHQEYLKLETTWMTAVGLSEMAAEAAYQTGADQASITARNHIQLVKLQVEEVHQLSRKAETKLAEAQIEELRQKTQEEGEERAESEQEAYLRED
For orientation: Kd means the free concentration of one partner at which half of the binding sites on the other are occupied at equilibrium, for simple one-to-one binding. Take B1: the Kd with XIAP is 420 nM.
